Measurements as given in patent US12059428B2, “Methods of treating tumor metastasis” (TARIS Biomedical LLC, priority 2017, dated 2024).
Entries after “also recorded” stand apart in the source; their conditions may differ.

Experiments:
[1] = tested on: subcutaneous NBTII tumors; test: Bladder and flank NBTII tumor model, subcutaneous tumor volume by caliper (Example 1); type: in vivo, rat
Description: Standardized bladder perfusion system was modified to introduce bladder and subcutaneous tumors. The bladders were first surgically cannulated by placing a catheter into the bladder, fixed in place using a suture, the free end exteriorized between the scapulae.
The animals were allowed to heal. Bladder tumors were established by injecting tumor cell suspension directly into bladder wall. Subcutaneous tumor was established by injecting tumor cell suspension under skin abdominal flank.
The bladder and flank tumor model used in this study utilized immunocompetent Wistar rats, 7 to 8 weeks in age and weighing between 150 to 200 g. The bladders were first surgically cannulated by placing a P50 catheter into the bladder dome which was fixed in place using a purse string suture and the free end exteriorized between the scapulae. […] Per study protocol, different groups of bladder cannulated rats were next inoculated with NBTII tumor cells (Nara Bladder Tumor No. 2; ATCC® CRL1655™). This is a rat syngeneic bladder tumor cell line originally derived from tumors induced with N-butyl-N-(4-hydroxybutyl) nitrosamine. In certain treatment groups, the tumor cells were injected directly into the bladder wall as a 50 uL cell suspension of approximately 2×10^6 cells. […]
Group 4 (SCT with BT, N=10) animal bladders were cannulated on study Day 0 and on study Day 4 both the bladder and abdominal flank were inoculated with NBTII tumor cells. Gemcitabine HCl in PBS (180 ug/mL) was perfused via the cannula into the bladder beginning on study Day 6 at a constant rate of 0.3 mL per hour for 5 days and again beginning on Day 20 for an additional 5 day treatment period.
Subcutaneous tumor volumes were serially measured post inoculation every two or three days using a caliper method.

[2] = tested on: T24-TurboFP635 human derived MIBC cells; test: Bladder tumor bioluminescence in athymic rats with T24-TurboFP635 cells injected into the bladder; type: in vivo, rat; settings: for reduction in bladder tumor bioluminescence vs control: athymic rats, 5-day perfusion, day 5
Procedure: (§1) The direct effects of low dose gemcitabine were studied in athymic rats with human derived MIBC cells, T24-TurboFP635, injected into the bladder. After 3 days tumor growth, gemcitabine or vehicle was perfused into the bladder over 5 days, yielding nominal urine concentrations of 0, 20, 40, or 80 ug/ml gemcitabine, N=6 per group. Tumor bioluminescence was measured on day 5. A companion study in immunocompetent rats inoculated with syngeneic NBTII bladder tumors, provided tumors for immunocyte analysis.

[3] = tested on: tumor T regulatory cells to T effector cells; test: Flow cytometric immunocyte analysis of residual NBTII bladder tumors; type: in vivo, rat; settings: residual NBTII tumors from immunocompetent rats
Procedure: as §1

NBTII flank tumors = test: Gemcitabine immunogenicity study, NBTII bladder and flank tumors (Example 2); type: in vivo, rat
Description: Gemcitabine immunogenicity was studied in immunocompetent rats with NBTII cells injected into the bladder and subcutaneous flank tissue; flank tumors were implanted either simultaneously with bladder tumors or 14 days after bladder tumor injection. Control groups received only flank tumors, N=15, or bladder and flank tumors with vehicle perfusion, N=10. […]

[4] = tested on: subcutaneous NBTII tumors; test: Varying gemcitabine bladder exposure, simultaneously implanted bladder and subcutaneous NBTII tumors (Example 3); type: in vivo, rat; settings: perfusion 45 and 90 μg/ml, nominal urine 10 and 20 μg/ml, FIG. 6
Description: Extending the investigation described in EXAMPLE 1, additional studies of NBTII bladder and subcutaneous tumors evaluated the effect of varying gemcitabine bladder exposures with and without simultaneous bladder tumor implantation.
In one set of experiments, gemcitabine perfusion concentrations were varied to evaluate the effect of differing bladder tumor exposures on subcutaneous tumor growth rates. Bladder cannulated rats (n=10 per treatment group) with simultaneously implanted bladder and subcutaneous NBTII tumors were studied over two treatment cycles, each separated by a 7-day drug free period, as used in the EXAMPLE 1 study.
Gemcitabine perfusion concentrations of 45 μg/ml and 90 μg/ml were tested, producing nominal urine concentrations of 10 μg/ml and 20 μg/ml respectively, representing […] reductions vs the original study gemcitabine urine concentrations. Subcutaneous tumor growth was measured during the study as previously.

[5] = tested on: subcutaneous NBTII tumors; test: Bladder cannulated rats with only subcutaneous NBTII tumors, no bladder tumor (Example 4); type: in vivo, rat; settings: two perfusion cycles, FIG. 7
Procedure: To confirm the observed effects on subcutaneous tumor growth is the result of the local action of intravesical gemcitabine on bladder tumors, an additional series of experiments were completed in which bladder cannulated rats were implanted with only subcutaneous NBTII tumors. The animals were then treated with two perfusion cycles of intravesical gemcitabine as in the previous experiments. […] These findings both confirm the presence of a bladder tumor is required and the observed reductions in subcutaneous tumors are mediated immunologically.

TGF-β = test: Circulating TGF-β in rats inoculated with NBTII bladder tumors; type: in vivo, rat; settings: low concentration intravesical perfusion, FIG. 8
Description: TGF-β drives Treg cell expression which in turn suppresses both local and systemic CD4 and CD8 T cell response against the bladder tumor.

IL-10 = IL-10 levels in rats inoculated with NBTII bladder tumors; type: in vivo, rat; settings: spleens of treated animals, FIG. 9
Description: (§2) IL-10 increases associated with acute treatment are known to facilitate T cell mediated antitumor effects.

TNF-α = TNF-α levels in rats inoculated with NBTII bladder tumors; type: in vivo, rat; settings: FIG. 10
Description: as §2

[6] = tested on: activated CD4 and CD8 cells in the spleen; test: Activated CD4 and CD8 cells in the spleen by flow cytometry, NBT-II tumor rats; type: in vivo, rat; settings: vs untreated tumor rats, FIG. 11
Procedure: Rats were inoculated with NBT-II tumors and the number of activated CD4 and CD8 cells in the spleen was assessed by flow cytometry either in rats treated with intravesicular gemcitabine or untreated rats. […] Intravesicular gemcitabine increased the percentage of activated CD4 and CD8 cells, thus indicating activation of the immune system against the tumor.

[7] = tested on: CD4+FOXP3+ and CD8+FOXP3+ regulatory T cells; test: Splenic regulatory T cells by flow cytometry, NBT-II tumor rats; type: in vivo, rat; settings: vs untreated tumor rats, FIG. 12
Description: The percentage splenic of regulatory T cells was assed using flow cytometry. […] Intravesicular gemcitabine increased the percentage of activated Cn both CD4+FOXP3+ and CD8+FOXP3+ regulatory T cells, thus indicating activation of the systemic immune system against the tumor.

[8] = Gemcitabine urine concentration during intravesicular perfusion; type: in vivo, rat; settings: intravesicular perfusion of 180 ug/ml solution
NBTII tumor cells = test: Bladder tumor growth after inoculation with NBTII tumor cells; type: in vivo, rat; settings: average urine concentration 40 ug/mL
[9] = prior studies in animals and humans; cited from earlier work
[10] = rats with concomitant bladder tumors

For `Nc1ccn([C@@H]2O[C@H](CO)[C@@H](O)C2(F)F)c(=O)n1` [gemcitabine, 2′,2′-difluorodeoxycytidine], the “subcutaneous tumor volume during second 5-day intravesical perfusion” value ([1]; Group 3 (SCT after BT): subcutaneous tumor implanted Day 17 after first perfusion, 180 ug/mL) was “all subcutaneous tumors were undetectable by palpation; also recorded: immediately declined in tumor volume until the tumors were no longer detectable”, the “eradication of subcutaneous tumors upon retreatment” value ([1]; Group 3 and 4 combined, two 5-day cycles of 180 ug/mL) was “complete eradication of all but one subcutaneous tumor” and the “subcutaneous tumor volume after second 5-day intravesical treatment” value ([1]; Group 4 (SCT with BT), 180 ug/mL, second cycle from Day 20) was “all but one tumor was undetectable by palpation”. The “subcutaneous tumor growth over the 7-day drug free period” value ([1]; Group 4 (SCT with BT), after first 5-day perfusion of 180 ug/mL) was “failed to return to their initial growth rate”, the “subcutaneous tumor growth by the end of the first intravesical perfusion period” value ([1]; Group 4 (SCT with BT): bladder and subcutaneous tumors Day 4, 180 ug/mL perfused 0.3 mL per hour for 5 days) was “dramatically slowed or fully arrested; also recorded: continued to grow for several days prior to arresting” and the “reduction in bladder tumor bioluminescence vs control” value (“reduction” for short) ([2]; nominal urine concentration 20 ug/ml) was 47.6%. The “reduction” value ([2]; nominal urine concentration 40 ug/ml) was 70.5%, the “reduction” value ([2]; nominal urine concentration 80 ug/ml) was 91.2% and the “bladder tumor growth after inoculation with T24 tumor cells” value ([2]; average urine concentration 40 ug/mL) was “significantly reduce bladder tumor growth”. For the same molecule, the “decrease in the proportion of tumor T regulatory cells to T effector cells” value [3] was 85.2%, the “flank tumor growth arrest during the 7-day drug free period” value (NBTII flank tumors; 60 ug/ml group) was “this effect was maintained” and the “flank tumor response, implantation delayed to 3 days before the second perfusion” value (NBTII flank tumors; flank tumor implanted 14 days after bladder tumor) was “no tumor growth, but immediate tumor ablation”. For the same molecule, the “flank tumor response to the second perfusion” value (NBTII flank tumors; flank tumors implanted simultaneously with bladder tumors) was “rapid flank tumor ablation in all but one animal”, the “flank tumor growth during the first perfusion cycle” value (NBTII flank tumors; [10]) was “fully arrested” and the “flank tumor size relative to controls during the first perfusion cycle” value (NBTII flank tumors; [10]) was 50 % of controls. For the same molecule, the “subcutaneous tumor volume at reduced urine concentrations” value [4] was “dose related reduction in subcutaneous tumor volume”, the “subcutaneous tumor volume during the second treatment cycle” value [4] was “significantly decreased to near ablation” and the “subcutaneous tumor growth in rats without bladder tumor” value [5] was “continued to grow throughout both treatment cycles”. The “circulating TGF-β plasma concentration” value (TGF-β) was “suppressed TGF-β production”, the IL-10 levels (IL-10) was “increased IL-10 levels” and the TNF-α level (TNF-α) was “moderately increased”. For the same molecule, the “percentage of activated CD4 cells in the spleen” value [6] was “increased”, the “percentage of activated CD8 cells in the spleen” value [6] was “increased” and the “percentage of splenic CD4+FOXP3+ regulatory T cells” value [7] was “increased”. The “percentage of splenic CD8+FOXP3+ regulatory T cells” value [7] was “increased”, the “average gemcitabine urine concentration” value [8] was 40 µg/mL and the “bladder tumor growth after inoculation with NBTII tumor cells” value (NBTII tumor cells) was “significantly reduce bladder tumor growth”. For the same molecule, the “systemic drug concentrations after low concentrations of intravesical gemcitabine” value [9] was “do not produce therapeutic drug concentrations systemically”.
